Consider two compounds from US8729048B2, “Methods and materials for assessing responsiveness to PARP inhibitors and platinating agents” (Mayo Foundation for Medical Education and Research, priority 2011, dated 2014).

In test [1] the test system is MMEJ activity in PEO1 cells. Kind of test: Microhomology mediated end-joining assay (MMEJ), PEO1. It counts as cell-based. The conditions noted are these: 72 hours. The source says: FIG. 11. PARP inhibition fails to induce microhomology-mediated end-joining (MMEJ). (A) Schematic of the reporter substrate used to assay for MMEJ activity. Cleavage of pDVG94 with EcoRV and AfeI creates a blunt-ended linearized substrate, with identical 6-bp ends. Direct joining by NHEJ will result in maintenance of both repeats, but MMEJ will excise one repeat, introducing a new BstXI site. PCR across recircularized substrate produces a product of 180 bp, which can be cut into 120 and 60 bp fragments if the BstXI site was created. This figure is adapted from a figure provided elsewhere (Verkaik et al., Eur. J. Immunol., 32:701-709 (2002)). (B) and (C) Agarose gel from a representative MMEJ assay. PEO1 (B, lanes 1-10) and PEO4 (C) cells were treated with increasing concentrations of ABT-888 following transfection with linearized pDVG94. The size of the initial PCR product (180 bp) as well as BstXI cleaved products (120 bp and 60 bp) are indicated. As a positive and negative control, a cell line previously documented to undergo MMEJ (Lou et al., J. Biol. Chem., 279:46359-46362 (2004)), M059J (B, lanes 11 and 12), and a MMEJ-negative line, M059J+DNA-PKcs (B, lanes 13 and 14) were used. Images were captured from one gel and cut to create two panels. […]

Test [2] concerns BRCA1-deficient HCC1937 cells. As to the kind of experiment: Clonogenic assay, HCC1937. It counts as cell-based. The conditions noted are these: continuous exposure, 125 nM DNA-PKi. The protocol: FIG. 6. […] (A) BRCA1-deficient HCC1937 and BRCA1-reconstituted HCC1937/BRCA1 cells were continuously exposed to ABT-888 in the presence or absence of 125 nM DNA-PKi and assayed for clonogenic survival. Inset, Western blots of cell lysates from HCC1937 and HCC1937/BRCA1. (B) Western blots of M059J and reconstituted M059J+DNA-PKcs lines showing the restoration of DNA-PK expression and the shRNA-mediated knockdown of BRCA1. (C) Clonogenic survival of shRNA transfected M059J/M059J+DNA-PKcs lines treated with ABT-888 for 72 hours. (D) Clonogenic survival of ATM-deficient GM16666 or ATM-reconstituted GM16667 fibroblasts. Cells were exposed to ABT-888 for 48 hours in the presence or absence of 250 nM DNA-PKi, washed, and allowed to form colonies. Inset, Western blots of lysates from GM16666 and GM16667 fibroblasts. […] Results are representative of 3 independent experiments.
Colony formation assays were performed on siRNA-transfected PEO1 and PEO4 cells 48 hours after the second transfection. Cells were trypsinized and plated at 750 cells/plate in triplicate 60-mm dishes containing medium A, allowed to grow 10-14 days, and stained with Coomassie Brilliant Blue. Colonies containing ≧50 cells were scored manually. […]

In the case of `C[C@]1(c2nc3c(C(N)=O)cccc3[nH]2)CCCN1` [ABT-888], the “induction of MMEJ” value in test [1] was “not detected”.

As for `CCN1CCN(CC(=O)Nc2ccc(-c3cccc4c(=O)cc(N5CCOCC5)oc34)c3sc4ccccc4c23)CC1` [AZ 12594248], the “effect on ABT-888 sensitivity (clonogenic survival)” value in test [2] is given as “diminished ABT-888 sensitivity”.
